Source: US20160262443A1, “USE OF A COMPOSITION CONTAINING 1,3-PROPANEDIOL AS E-LIQUID” (priority 2014, published 2016)
Like-named read-outs stand apart in the source and are kept apart here.

Key:
[1] = format: physicochemical; conditions: for DTA Vaporization temperature (endothermic peak) / DTA Transformation temperature (exothermic peak, reaction and/or decomposition): 25 to 350° C.
Procedure: Thermogravimetric analysis is a thermal analysis method in which the changes of the physical and chemical properties of the materials are measured as a function of the temperature. TGA can yield information on the physical phenomena, such as vaporization or combustion.
Similarly, one can obtain information on chemical phenomena such as dehydration or decomposition. In differential thermal analysis (DTA), the material under study and an inert reference material are exposed to identical thermal cycles. During the analysis, the difference in temperature between the sample and the reference material is recorded. These differences in temperatures monitored versus time relative to the inert reference material provide information on the exothermic or endothermic thermal phenomena undergone by the sample. By integration of the heat flow curve, DTA analysis yields the so-called endothermic enthalpy values when there is energy absorption, or so-called exothermic enthalpy values when energy is released in the form of heat. The endothermic character is connected with a change in the state of the compound (for example, vaporization), while the exothermic character is induced by decomposition reactions or intra- and intermolecular chemical reactions.
The analysis conditions are the following: • test specimen: 50 mg • open crucible under air flow: 100 mL/min • heating ramp: 10° C./min • temperature range: 25 at 350° C. (temperature conditions representative of normal use and of misuse of an electronic cigarette). Between analyses, the apparatus is cleaned by heating at 600° C. under air flow, in order to eliminate any trace of unvaporized residue deposited on the crucible, the arms of the scale, or the walls of the furnace.

[2] = Kinematic viscosity measurement of e-liquid products (Example 6); format: physicochemical
Procedure: Then, the kinematic viscosity of products A, B, C and D is measured.

Structure (SMILES)	DTA residue unvaporized at 250° C. ([1]; air flow, 10° C./min) [%]	DTA Vaporization temperature (endothermic peak) ([1]; air flow, 10° C./min) [°C]	DTA Transformation temperature (exothermic peak, reaction and/or decomposition) ([1]; air flow, 10° C./min)	DTA Vaporization temperature (endothermic peak) ([1]; air flow, 10° C./min, listed as propylene glycol) [°C]	evaporation temperature lower than that of nicotine ([1]; difference to nicotine) [°C]	Kinematic viscosity at 20° C. [2] [mPa · s]
OCC(O)CO [Glycerol, glycerol]	27.3	260	–	–	–	–
CC(O)CO (stereo not drawn) [Propylene glycol, propylene glycol]	–	174	without any thermal decomposition	170	16	–
OCCCO [1,3-propanediol]	–	189	without any thermal decomposition	–	–	52.6
